Results on four compounds are retold here after article PMC10810823, “Generation of a new therapeutic D-peptide that induces the differentiation of acute myeloid leukemia cells through A TLR-2 signaling pathway” (Cell Death Discovery, 2024).

Where a SMILES comes first, the peptide text is derived from it. Where no end group is shown, it is not given here. [ ]: non-standard residue; d: D form.

The subject of series [1] is THP-1 cells. Kind of series: Apoptosis by Annexin V/propidium iodide staining, flow cytometry. The series is classed as cell-based, human. The note with it: THP-1, 48 h; Fig. 1C. On the procedure: (§1) The THP-1, U937, and HL-60 cell lines were purchased from ATCC. THP-1, HL-60, and U937 cells were cultured in RPMI 1640 containing 2 mM glutamine, 100 IU/ml penicillin and 100 μg/ml streptomycin (Sigma), supplemented with 10% fetal bovine serum (FBS; Gibco). Cell cultures were maintained at 37 °C, 5% CO2 at 0.8–1 × 10^5 cells/ml. For the initiation of differentiation in THP-1, HL-60, U937, and primary AML cells, the cells were seeded into 12-well tissue culture plates at 1 × 10^6 cells/well. Subsequently, these cells were exposed to the indicated clonal phages (10^10 virions per well), peptides (10 μg/ml), or 100 nM PMA (Sigma-Aldrich, MO, USA).
APC Annexin V Apoptosis Detection Kit with PI (BioLegend, Catalog # 640932, CA, USA) was employed to evaluate cell apoptosis. Target cells were washed twice with cold BioLegend’s Cell Staining Buffer, then suspended in Annexin V Binding Buffer at a concentration of 0.25–1.0 × 10^7 cells/ml. To 100 µL of the cell suspension, 5 µL of APC Annexin V and 10 µL of Propidium Iodide Solution (PI) were added. The suspension was gently vortexed and incubated in the dark for 15 minutes at room temperature. Finally, 400 µL of Annexin V Binding Buffer was added to each tube, and the samples were analyzed by flow cytometry. […]

For series [2], the system named is THP-1 cells. The series is described as follows: Proliferation by Ki-67 staining, FACS. The series is classed as cell-based, human. The note with it: THP-1, 48 h; Fig. 1D. On the procedure:
as §1
To assess proliferation, Ki-67 was detected using FACS after 48 h of cell culture exposed to a specific stimulation. Following the manual instruction, the target cells were incubated with 70% cold ethanol at −20 °C for 1 h, washed, and then suspended at a concentration of 1.0 × 10^7/ml in BioLegend Cell Staining Buffer. Subsequently, 100 µl cell suspension was incubated with the 5 µl Ki-67 antibody for flow cytometric analysis.

The test system of another series is NOD/SCID mice. The series is described as follows: In vivo toxicity at 10-fold treatment dose (H&E of major organs, glucose and serum biochemical indices). To be noted: 200 mg/kg i.v. every 3 days, 30 days, n = 3 per group. On the procedure:
Based on the above in vitro findings, we next tested whether the peptides could suppress the growth of leukemia cells in vivo. To this end, NOD/SCID mice were subcutaneously inoculated with THP-1 cells. L-pep-P6, D-pep-P6, or pep-NC was injected intravenously into NOD/SCID mice (n = 3 per group) at a 10-fold treatment dose (200 mg/kg) every 3 days. We first examined the toxicity of these peptides in vivo. After 30 days of indicated treatments, the major organs, including the heart, kidney, spleen, liver, and lung, were isolated and stained with hematoxylin and eosin. No histological changes in major organs were detectable in the peptide-treated groups when compared with the untreated group (Fig. 4A). We further examined the glucose and serum biochemical indices, such as aspartate aminotransferase (AST), alanine aminotransferase (ALT), creatinine (Cr), and urea.
The mice were categorized into three groups, including the pep-NC group, the D-pep-P6 group, and the […] group (n = 3 per group). These groups received a dosage that was ten times the standard therapeutic amount via the tail vein. Major organs of mice from different treated groups were fixed in 4% formaldehyde for hematoxylin and eosin staining. Following a hydration process, the tissues were stained with Harris hematoxylin for 15 min. […]

For series [3], the system named is THP-1 cells. The series is described as follows: Differentiation: cell surface CD11b and CD14 by FACS. To be noted: THP-1, 48 h; ***P < 0.001; 6 independent experiments. The series is classed as cell-based, human. On the procedure: as §1
Differentiation status was also assessed by morphological observation of the cells and by FACS detection of cell surface CD11b and CD14 expression (Table 3). FcR Blocking Reagent (Miltenyi Biotec) was employed to prevent undesired antibody binding and enhance the staining specificity of cell surface antigens.
For orientation: Flow cytometry measures light scatter and fluorescence of single cells or particles in a stream.

The subject of series [4] is THP-1 cells. Kind of series: Cell differentiation induction: ratio of adherent cells. The series is classed as cell-based, human. To be noted: clonal phages P1, P2, P6, P9 enriched in Round 3; Fig. 1G. How it is done:
as §1
Cells were cultured according to the method described above. As the adherent cell numbers reached a peak at 48 h and declined after 72 h, we chose 48 h as the incubation time in the following experiments. Following the incubation period, cells within each were washed 3 times with PBS. Cells were considered to be adherent if they resisted the vigorous shake of the culture flask and washing by pipetting with a normal growth medium. To assess the ratio of adherent cells, an equal amount of FITC beads (BioLegend, Catalog # 424601, CA, USA) was separately introduced to both suspended and adherent cells. Subsequently, the proportions of FITC beads were measured using FACS. […]

Series [5] is described as follows: In vivo pharmacokinetic assay. Also on record: species or system NOD/SCID mice. How it is done:
In addition, we administered a therapeutic dose of D-pep-P6 (20 mg/kg) via intravenous tail injection into NOD/SCID mice (n = 3 per group). Serum samples were collected at various time points, and the content of D-pep-P6 was quantitatively analyzed using high-performance liquid chromatography coupled with mass spectrometry (Supplemental Fig. 3).
Female NOD/SCID mice weighing between 18 and 20 g were utilized for the pharmacokinetic analysis of D-pep-p6. In the plasma, D-pep-p6 pharmacokinetic profile analysis, groups of mice (n = 3) were administered a single intravenous dose of 20 mg/kg. Blood samples were collected at specified time intervals and subsequently centrifuged at 8000 rpm for 10 min. The resulting plasma was mixed with CH4O in a 3:1 (v/v) ratio and centrifuged once more at 13,000 rpm for 10 min. The supernatant was then analyzed using RP-HPLC to determine parameters such as the maximum plasma concentration (Cmax) and elimination half-life (T1/2).

With `CCCCCCCCCCCCCC(=O)O[C@@H]1[C@@H](C)[C@@]2(O)[C@@H](C=C(CO)C[C@]3(O)C(=O)C(C)=C[C@@H]23)[C@@H]2C(C)(C)[C@]12OC(C)=O` [PMA, phorbol 12-myristate 13-acetate], the “proportions of apoptotic and necrotic cells compared to the unstimulated group” value in the series with THP-1 cells [1] is listed as “slight increase”. In addition, the “proliferation (Ki-67 expression) compared to negative control” value with THP-1 cells [2] is listed as “significant reduction in proliferation”.
In the case of QFPGFGTELPSS [L-pep-P6], the “signs of toxicity / overall toxicity” value in the series with NOD/SCID mice is on record as “low toxicity”.
Regarding “QFPGFGTELPSS [P6, monoclonal phage from Ph.D.-12 library displaying …]”, in the series with THP-1 cells [3], the “MFI of CD11b expression induced by P6 relative to that induced by PMA” value was found to be 1.5 fold and the “MFI of CD14 expression induced by P6 relative to that induced by PMA” value worked out at 1.3 fold. Further, the “capability for inducing THP-1 cell differentiation (percentage of adherent cells) among clonal phages” value in the series on THP-1 cells [4] is on record as “greatest capability for inducing THP-1 cell differentiation”.
As for `CC(C)C[C@@H](NC(=O)[C@@H](CCC(=O)O)NC(=O)[C@H](NC(=O)CNC(=O)[C@@H](Cc1ccccc1)NC(=O)CNC(=O)[C@H]1CCCN1C(=O)[C@@H](Cc1ccccc1)NC(=O)[C@H](N)CCC(N)=O)[C@H](C)O)C(=O)N1CCC[C@@H]1C(=O)N[C@H](CO)C(=O)N[C@H](CO)C(=O)O` [D-pep-P6] (H-[dQ][dF][dP]G[dF]G[dT][dE][dL][dP][dS][dS]-OH), the “resistance to proteolysis / stability in vivo” value in series [5] (NOD/SCID mice, i.v. 20 mg/kg, from concentration-time curve) was “remarkable resistance to proteolysis”. In addition, in series [5] (mouse, iv, female NOD/SCID mice, single i.v. 20 mg/kg, n = 3 per time point, plasma (serum), RP-HPLC (HPLC coupled with mass spectrometry), read-out: maximum concentration (Cmax)), the Cmax is 13200 ng/mL. In addition, the “signs of toxicity / overall toxicity” value with NOD/SCID mice is given as “low toxicity”.
